Source: US20250296953A1, “3,4-THIAZOLO-STEROIDS AND METHODS OF MAKING AND USING THE SAME” (Arkansas State University - Jonesboro, priority 2018, published 2025)
Like-named read-outs stand apart in the source and are kept apart here.

Tests used:
gliosarcoma (SF-539) = experiment: NCI 60 five dose screen; settings: for GI50: SF-539
SK-MEL-5 = experiment: Melanoma cytotoxicity assay (resazurin); assay type: cell-based; settings: SK-MEL-5 melanoma cells, 24 hours with compound, resazurin; concentration not given
In short: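 ~4000 cells/well seeded 24 h, then compound added in triplicate for 24 h at 37° C, 5% CO2. Resazurin added for 6 h; fluorescence at 544/590 nm, background-subtracted and normalised to DMSO wells as % viability; IC50 from sigmoidal fit of serial dilutions.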

[1] = tested on: 60 different human tumor cell lines; experiment: cells

C[C@]12CCc3sc(Nc4ccc(OC(F)(F)F)cc4)nc3C1=CC[C@@H]1[C@@H]2CC[C@]2(C)C(=O)CC[C@@H]12 [IIa.19, (1S,2R,13R,14S,18S)-2,18-dimethyl-7-[4-(trifluoromethoxy)anilino]-6-thia-8-azapentacyclo[11.7.0.02,10.05,9.014,18]icosa-5(9),7,10-trien-17-one]
GI50 (gliosarcoma (SF-539); Homo sapiens): 1.05 µM | CC50 (gliosarcoma (SF-539); Homo sapiens, SF-539, read-out: LC50): 7.07 µM | TGI (gliosarcoma (SF-539); SF-539 (CNS Cancer), five dose): 2.72E−6 | SK-MEL-5 (% inhibition) (SK-MEL-5): 43% | GI50 ([1]; A549): 3.35 µM | CC50 ([1]; A549, read-out: LC50): 73.5 µM | GI50 ([1]; CCRF-CEM): 1.42 µM | CC50 ([1]; CCRF-CEM, read-out: LC50): > 100 µM | GI50 ([1]; COLO 205): 2.61 µM | CC50 ([1]; COLO 205, read-out: LC50): 58.7 µM | GI50 ([1]; EKVX): 2.63 µM | CC50 ([1]; EKVX, read-out: LC50): 95.7 µM | GI50 ([1]; HCC 2998): 5.32 µM | CC50 ([1]; HCC 2998, read-out: LC50): 51.2 µM | GI50 ([1]; HCT-15): 1.69 µM | CC50 ([1]; HCT-15, read-out: LC50): 9.97 µM | GI50 ([1]; HCT-116): 1.28 µM | GI50 ([1]; HL-60): 1.93 µM | CC50 ([1]; HL-60, read-out: LC50): > 100 µM | GI50 ([1]; HOP-62): 1.92 µM | CC50 ([1]; HOP-62, read-out: LC50): 9.14 µM | GI50 ([1]; HOP-92): 1.43 µM | CC50 ([1]; HOP-92, read-out: LC50): 8.26 µM | GI50 ([1]; HT-29): 2.39 µM | CC50 ([1]; HT-29, read-out: LC50): > 100 µM | GI50 ([1]; K562): 1.87 µM | CC50 ([1]; K562, read-out: LC50): > 100 µM | GI50 ([1]; KM12): 3.56 µM | CC50 ([1]; KM12, read-out: LC50): > 100 µM | GI50 ([1]; LOX IMVI): 1.74 µM | CC50 ([1]; LOX IMVI, read-out: LC50): 5.82 µM | GI50 ([1]; MOLT-4): 1.53 µM | CC50 ([1]; MOLT-4, read-out: LC50): > 100 µM | GI50 ([1]; Malme-3M): 3.45 µM | CC50 ([1]; Malme-3M, read-out: LC50): 84.5 µM | GI50 ([1]; NCI-H23): 3.73 µM | CC50 ([1]; NCI-H23, read-out: LC50): 94.6 µM | GI50 ([1]; NCI-H226): 6.37 µM | CC50 ([1]; NCI-H226, read-out: LC50): > 100 µM | GI50 ([1]; NCI-H322M): 6.05 µM | CC50 ([1]; NCI-H322M, read-out: LC50): > 100 µM | GI50 ([1]; NCI-H460): 3.25 µM | CC50 ([1]; NCI-H460, read-out: LC50): 41.9 µM | GI50 ([1]; NCI-H522): 2.14 µM | CC50 ([1]; NCI-H522, read-out: LC50): 9.7 µM | GI50 ([1]; SF-268): 3.01 µM | CC50 ([1]; SF-268, read-out: LC50): 57.3 µM | GI50 ([1]; SNB-19): 2.12 µM | CC50 ([1]; SNB-19, read-out: LC50): 46 µM | GI50 ([1]; SNB-75): 1.88 µM | CC50 ([1]; SNB-75, read-out: LC50): 29.6 µM | GI50 ([1]; SW-620): 2.21 µM | CC50 ([1]; SW-620, read-out: LC50): 18.5 µM | GI50 ([1]; U-251): 1.09 µM | CC50 ([1]; U-251, read-out: LC50): 9.78 µM

C[C@]12CCc3sc(Nc4ccc(F)cc4F)nc3C1=CC[C@@H]1[C@@H]2CC[C@]2(C)C(=O)CC[C@@H]12 [IIa.10, (1S,2R,13R,14S,18S)-7-(2,4-difluoroanilino)-2,18-dimethyl-6-thia-8-azapentacyclo[11.7.0.02,10.05,9.014,18]icosa-5(9),7,10-trien-17-one]
GI50 (gliosarcoma (SF-539); Homo sapiens): 1.63 µM | SK-MEL-5 (% inhibition) (SK-MEL-5): 48% | CC50 ([1]; 60 cell, read-out: LC50): > 100 µM | CC50 ([1]; A498, read-out: LC50): > 100 µM | CC50 ([1]; A549, read-out: LC50): > 100 µM | GI50 ([1]; ACHN): 1.81 µM | CC50 ([1]; BT-549, read-out: LC50): > 100 µM | CC50 ([1]; CAKI-1, read-out: LC50): > 100 µM | GI50 ([1]; CCRF-CEM): 2.64 µM | CC50 ([1]; CCRF-CEM, read-out: LC50): > 100 µM | GI50 ([1]; DU-145): 1.98 µM | CC50 ([1]; EKVX, read-out: LC50): > 100 µM | GI50 ([1]; HCT-15): 1.7 µM | CC50 ([1]; HCT-15, read-out: LC50): > 100 µM | GI50 ([1]; HCT-116): 1.67 µM | CC50 ([1]; HL-60, read-out: LC50): > 100 µM | CC50 ([1]; HOP-62, read-out: LC50): > 100 µM | CC50 ([1]; HOP-92, read-out: LC50): > 100 µM | GI50 ([1]; HT-29): 2.24 µM | CC50 ([1]; HT-29, read-out: LC50): > 100 µM | CC50 ([1]; Hs-578T, read-out: LC50): > 100 µM | CC50 ([1]; IGROV-1, read-out: LC50): > 100 µM | GI50 ([1]; K562): 2.43 µM | CC50 ([1]; K562, read-out: LC50): > 100 µM | GI50 ([1]; LOX IMVI): 1.71 µM | CC50 ([1]; M14, read-out: LC50): > 100 µM | CC50 ([1]; MCF7, read-out: LC50): > 100 µM | CC50 ([1]; MDA-MB-231, read-out: LC50): > 100 µM | CC50 ([1]; MDA-MB-435, read-out: LC50): > 100 µM | GI50 ([1]; MDA-MB-468): 1.75 µM | GI50 ([1]; MOLT-4): 2.44 µM | CC50 ([1]; MOLT-4, read-out: LC50): > 100 µM | CC50 ([1]; Malme-3M, read-out: LC50): > 100 µM | CC50 ([1]; NCI-H23, read-out: LC50): > 100 µM | GI50 ([1]; NCI-H226): 1.83 µM | CC50 ([1]; NCI-H322M, read-out: LC50): > 100 µM | CC50 ([1]; NCI-H460, read-out: LC50): > 100 µM | GI50 ([1]; NCI-H522): 1.84 µM | CC50 ([1]; NCI/ADR-RES, read-out: LC50): > 100 µM | GI50 ([1]; OVCAR-3): 1.9 µM | CC50 ([1]; OVCAR-4, read-out: LC50): > 100 µM | CC50 ([1]; OVCAR-5, read-out: LC50): > 100 µM | GI50 ([1]; OVCAR-8): 2.96 µM | CC50 ([1]; OVCAR-8, read-out: LC50): > 100 µM | GI50 ([1]; RXF 393): 1.57 µM | CC50 ([1]; SF-268, read-out: LC50): > 100 µM | CC50 ([1]; SK-MEL-2, read-out: LC50): > 100 µM | GI50 ([1]; SK-MEL-5): 1.88 µM | CC50 ([1]; SK-OV-3, read-out: LC50): > 100 µM | CC50 ([1]; SN12C, read-out: LC50): > 100 µM | CC50 ([1]; SNB-19, read-out: LC50): > 100 µM | CC50 ([1]; SNB-75, read-out: LC50): > 100 µM | GI50 ([1]; SW-620): 2.4 µM | CC50 ([1]; SW-620, read-out: LC50): > 100 µM | GI50 ([1]; T47D): 2.25 µM | CC50 ([1]; T47D, read-out: LC50): > 100 µM | GI50 ([1]; TK-10): 2.8 µM | CC50 ([1]; TK-10, read-out: LC50): > 100 µM | CC50 ([1]; U-251, read-out: LC50): > 100 µM | CC50 ([1]; UACC-62, read-out: LC50): > 100 µM | CC50 ([1]; UACC-257, read-out: LC50): > 100 µM
